The test system of one test is MOLM14 cells. Put plainly: alamarBlue cell viability assay of MOLM14 cells. It counts as cell-based. The note with it: Homo sapiens, MOLM-14. As for the experimental part: In vitro evaluations. All 36 PROTACs are evaluated in the relevant kinase assays, and those with Ki values >10-fold weaker than the parent drug are not advanced further. […] Next, the IC50s of lead indirect MCL-1 PROTACs are determined by alamarBlue cell viability assays of four human AML cell lines.
Both MOLM14 and MV4;11 AML cell lines are relatively sensitive to VEN in vitro; harbor a FLT3-ITD mutation plus an MLL rearrangement, two relatively common poor-prognosis AML mutations (both cells lines also contain additional mutations); and are dependent on MCL-1 and BCL-2, and express relatively high levels of both. In addition, both MOLM14 and MV4;11 are sensitive to CDK9 inhibitors, PI3K/mTOR inhibitors and MEK inhibitors. […] Three repeats of each IC50 determination assay are performed for each compound against each of these four AML cell lines. Multiple compounds are tested against all four AML cell lines at once, using alamarBlue microplate assays previously described. Specifically, cell lines are treated with vehicle (negative control), PROTAC alone, parent (non-PROTAC) drug alone, VEN alone, the combination of parent drug+VEN, and the combination of PROTAC+VEN, each at multiple concentrations, and IC50s in the AML cell lines determined. […] Western blotting is conducted after treatment of cells with the active PROTACs to determine if dose-dependent reduction of MCL-1 and CDK9 or PI3K/mTOR or MEK proteins is observed.
Cell viability of MOLM14 cells was measured in presence of test compounds via alamarBlue assay. This is a colorimetric assay that uses resazurin, a reduction-oxidation indicator. After incubation, resazurin is added to the test wells. The reduced form of resazurin is resorufin, which is pink and highly fluorescent. This can be measured through absorbance or fluorescence and is proportional to the amount of living cells.
Background: The colour change of resazurin is a common sign of viable cells or microbes.

For the next test, the target named is CDK9 (Homo sapiens (Human), UniProt P50750). Description: CDK9 activity assay (Nanosyn microfluidics mobility shift platform). It counts as biochemical. As for the experimental part: CDK9 activity assays were performed by Nanosyn using a microfluidics mobility shift platform. In this assay, a fluorescently labeled substrate is incubated with the enzyme in the presence of test compounds. Samples are run through microfluidic chips, separating them based on differences in charge; this separates the more positive substrate from the more negative product. Enzyme activity is measured through comparison of the fluorescence from substrate and product peaks.

Test [1] deals with MOLM14 MCL1 OE cloned cell lines. Put plainly: 48 h alamarBlue cell viability assay of MOLM14 MCL1 OE cloned cell lines. It counts as cell-based, human. The note with it: MOLM14 MCL1 OE cloned cell lines vs control cell lines.
Description: Method: OLM14 AML cell were lentivirally transduced to overexpress MCL1. […] MOLM14 AML cells were transduced with lentiviral expression vector (LV) pWCC43 backbone containing EF1a—driven GFP and Ubiquitin (Ub)-driven MCL1, or control empty LV without MCL1, or control LV containing Luc in place of MCL1, and then single-cell subcloned.
In test [2] the test system is Luc-labelled MOLM14 AML cells. Put plainly: Luc-labelled MOLM14 AML xenograft in NRG mice, venetoclax monotherapy or combinations. The class given is in vivo, mouse. The settings on record: MOLM14 AML-bearing NRG mice; for AML burden (fold-change total body luminescence vs d0): two 5 d treatment cycles (d1-5, d21-25), imaging d7/d14/d21, vs vehicle. As for the experimental part:
Next, these two compounds are tested at their MTD(s) in a 5 d schedule that utilized to evaluate VEN-based combinations against a luciferase (Luc)-labelled MOLM14 human AML cell line xenograft model. NRG mice are infused with Luc-labelled MOLM14 AML cells on day -10. After Xenogen quantification of baseline total body luminescence on d0, mice are placed into experimental groups balanced for AML burden. Each experiment to evaluate the two selected indirect MCL-1 PROTACs in vivo involves 10 groups of 5 MOLM14 AML-bearing mice treated with: (1) vehicle, (2-3) lead PROTACs, (4-5) corresponding parent drugs, (6) VEN, (7-8) corresponding parent drugs+VEN and (9-10) lead PROTACs+VEN. […] and VEN are administered at the same molar concentration as the novel PROTACs; additional control groups are needed if the MTDs of the two PROTACs differ. MOLM14 AML-bearing NRG mice are dosed daily PO on dl-5 and d21-25, assessed for AML burden by Xenogen imaging on d7, d14, and d21, and monitored until clinical signs dictate need for euthanasia (projected average 10 weeks). Primary response endpoints are AML response quantitation (fold-change in AML burden on d7/14/21 vs d0 for each mouse) via imaging. Comparisons of quantitative imaging results are confirmed by Kaplan-Meier survival analyses. In addition, the two selected PROTACs are similarly tested against a Luc-labelled MV4;11 cell line xenograft model. […]
Thus, the proposed sample size (5 mice/group) is expected to provide sufficient power for statistical analyses (at p<0.05 level; α=0.05, β=0.1), which is estimated with the standard deviation of AML burden over time monitored and the expected drug efficacy differences. […] AML burden is quantified using log transformed ratio of luminescence at d7/14/21 vs d0 for each mouse (fold-change); groups are compared using the appropriate parametric (ANOVA; t-test, etc) or non-parametric alternative as necessary (Wilcoxon rank sum, Kruskal-Wallis). […]
Two of the parent drug candidates are synthesized but the syntheses are published and short. […] The indirect MCL-1 PROTAC candidates are evaluated in the kinase assays as they are synthesized. […] On d0, after Xenogen quantification of baseline total body luminescence (AML burden), groups of 5 AML-bearing mice were treated on days 1-5, per a previously established MTD POx5d schedule, with VEN (150 mg/kg/d POx5), as monotherapy or co-administered with SOR (30 mg/kg/d POx5), ART (50 mg/kg/d POx5), and/or ASP (2001U/kg IP single dose). […] On d7, d14 and d21, each mouse was Xenogen imaged for total body luminescence, fold-change AML burden from d0 was calculated for each mouse, and mean (+/−SD) fold-change for each experimental group plotted. […]

The mark [3] stands for this setting: MOLM14, 48 hr, read-out: Cell Viability (MOLM14 IC50-nM) 48 hr.
The mark [4] stands for this setting: MOLM14, 72 hr, read-out: Cell Viability (MOLM14 IC50-nM) 72 hr.

pIC50: −log10 of the molar value. Entries after “also recorded” stand apart in the source; their conditions may differ. Read-outs that look alike come from different tables or passages of the source.

Sequence of CDK9 (P50750 whole entry): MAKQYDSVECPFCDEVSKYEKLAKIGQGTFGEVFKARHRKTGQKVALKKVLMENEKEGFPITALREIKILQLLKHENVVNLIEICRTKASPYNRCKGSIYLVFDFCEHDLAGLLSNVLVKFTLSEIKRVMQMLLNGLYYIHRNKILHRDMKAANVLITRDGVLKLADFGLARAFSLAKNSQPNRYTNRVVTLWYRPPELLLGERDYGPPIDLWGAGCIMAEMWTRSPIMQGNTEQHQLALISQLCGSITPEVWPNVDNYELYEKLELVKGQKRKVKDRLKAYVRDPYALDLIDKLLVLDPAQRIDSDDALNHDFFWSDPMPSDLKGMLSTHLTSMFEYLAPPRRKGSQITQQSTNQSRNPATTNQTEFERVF
Sequence of CDK9 (O60563 whole entry partner): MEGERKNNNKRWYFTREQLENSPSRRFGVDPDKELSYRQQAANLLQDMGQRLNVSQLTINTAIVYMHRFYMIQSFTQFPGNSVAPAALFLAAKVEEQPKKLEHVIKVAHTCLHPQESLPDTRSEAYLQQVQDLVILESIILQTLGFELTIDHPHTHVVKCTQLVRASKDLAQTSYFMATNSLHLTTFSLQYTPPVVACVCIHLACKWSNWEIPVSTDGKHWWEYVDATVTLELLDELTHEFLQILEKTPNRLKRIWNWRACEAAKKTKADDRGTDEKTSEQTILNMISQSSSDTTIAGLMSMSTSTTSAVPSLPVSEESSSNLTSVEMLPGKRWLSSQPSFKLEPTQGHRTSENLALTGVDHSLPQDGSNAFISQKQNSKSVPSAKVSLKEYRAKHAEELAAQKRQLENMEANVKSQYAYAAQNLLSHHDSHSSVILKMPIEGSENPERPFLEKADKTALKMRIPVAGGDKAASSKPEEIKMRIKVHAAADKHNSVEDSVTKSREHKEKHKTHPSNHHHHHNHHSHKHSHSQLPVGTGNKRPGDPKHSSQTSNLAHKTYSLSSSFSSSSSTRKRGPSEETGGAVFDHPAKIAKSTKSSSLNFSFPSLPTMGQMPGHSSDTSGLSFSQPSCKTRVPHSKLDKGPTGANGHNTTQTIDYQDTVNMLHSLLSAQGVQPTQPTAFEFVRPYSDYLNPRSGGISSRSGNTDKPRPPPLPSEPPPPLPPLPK

For `CC(C)(C)OC(=O)CN1CCC(NC(=O)c2n[nH]cc2NC(=O)c2c(Cl)cccc2Cl)CC1` [AMC-3-086], the IC50 (usually the concentration needed to halve the response being measured) in the test with MOLM14 cells (setting [3]) was determined as 1560 nM; in the test on MOLM14 cells (setting [4]) it was 1590 nM. Further, the pIC50 (usually the IC50 on a negative log10 scale, so that one unit is a factor of ten) on CDK9 is 7.96.
With `CC(C)(C)OC(=O)N1CCC(NC(=O)c2n[nH]cc2NC(=O)c2c(Cl)cccc2Cl)CC1` [AMC-3-095], the IC50 in the test on MOLM14 cells (setting [3]) stood at 1680 nM; in the test on MOLM14 cells (setting [4]), 2010 nM. The pIC50 on CDK9 is 7.95.
In the case of `O=C(COc1cccc2c1C(=O)N(C1CCC(=O)NC1=O)C2=O)NCCNC(=O)CN1CCC(NC(=O)c2n[nH]cc2NC(=O)c2c(Cl)cccc2Cl)CC1` (centres unmarked) [AMC-3-097], on CDK9, the pIC50 was 8.40.
Take `O=C(NC1CCNCC1)c1n[nH]cc1NC(=O)c1c(Cl)cccc1Cl` [AMC-3-098, N-(4-Piperidinyl)-4-(2,6-dichlorobenzoylamino)-1H-pyrazole-3-carboxamide, reference compound]: the half-maximal inhibitory concentration (IC50) amounted to 178 nM with MOLM14 cells (setting [3]) and 460 nM with MOLM14 cells (setting [4]).
As for `O=C(COc1cccc2c1C(=O)N(C1CCC(=O)NC1=O)C2=O)NCCC(=O)N1CCC(NC(=O)c2n[nH]cc2NC(=O)c2c(Cl)cccc2Cl)CC1` (centres unmarked) [AMC-3-104], the pIC50 on CDK9 is 8.55.
`O=C1CCC(N2C(=O)c3cccc(OCC(=O)N4CCC(NC(=O)CN5CCC(NC(=O)c6n[nH]cc6NC(=O)c6c(Cl)cccc6Cl)CC5)CC4)c3C2=O)C(=O)N1` (centres unmarked) [AMC-3-106]: the IC50 with MOLM14 cells (setting [3]) was found to be 6070 nM; in the test with MOLM14 cells (setting [4]), 8170 nM. In addition, the pIC50 on CDK9 was 8.52.
Taken in the same sequence, the figures for `O=C(COc1cccc2c1C(=O)N(C1CCC(=O)NC1=O)C2=O)NCCOCCNC(=O)CN1CCC(NC(=O)c2n[nH]cc2NC(=O)c2c(Cl)cccc2Cl)CC1` (centres unmarked) [CG-3-066] were 1970 nM, 1690 nM and 8.48.
Taken in the same sequence, the figures for `O=C(COc1cccc2c1C(=O)N(C1CCC(=O)NC1=O)C2=O)NCCOCCOCCNC(=O)CN1CCC(NC(=O)c2n[nH]cc2NC(=O)c2c(Cl)cccc2Cl)CC1` (centres unmarked) [CG-3-067] were 4320 nM, 7150 nM and 8.41.
For `O=C(COc1cccc2c1C(=O)N(C1CCC(=O)NC1=O)C2=O)NCCCCCCC(=O)N1CCC(NC(=O)c2n[nH]cc2NC(=O)c2c(Cl)cccc2Cl)CC1` (centres unmarked) [CG-3-071], in that order: 1710 nM, 1910 nM and 8.55.
`Cc1c(-c2c(-c3ccc(F)o3)sc3ncnc(O[C@H](Cc4ccccc4OCc4ccnn4CC(F)(F)F)C(=O)O)c23)ccc(OCCN2CCN(C)CC2)c1Cl` [S63845]: the “Sensitivity of MCL-1 overexpressing MOLM14 clones compared to control cell lines” value in test [1] is “reduced sensitivity”.
Consider `O=C1CCC(N2C(=O)c3cccc(OCC(=O)N4CCC(C(=O)N5CCC(NC(=O)c6n[nH]cc6NC(=O)c6c(Cl)cccc6Cl)CC5)CC4)c3C2=O)C(=O)N1` (centres unmarked) [SF-8-140], for which the IC50 turned out to be 3000 nM with MOLM14 cells (setting [3]) and 1820 nM with MOLM14 cells (setting [4]). Moreover, the pIC50 at CDK9 is 8.78.
As to `O=C(CNC(=O)COc1cccc2c1C(=O)N(C1CCC(=O)NC1=O)C2=O)NCCCCCCC(=O)N1CCC(NC(=O)c2n[nH]cc2NC(=O)c2c(Cl)cccc2Cl)CC1` (centres unmarked) [SF-8-141], the pIC50 on CDK9 is 8.35.
On to `CNC(=O)c1cc(Oc2ccc(NC(=O)Nc3ccc(Cl)c(C(F)(F)F)c3)cc2)ccn1` [SOR, Sorafenib], for which, in test [2], the “AML burden (fold-change total body luminescence vs d0)” value was “reduced AML burden only moderately; also recorded: significant difference in AML burden only at d7 and d14”.
Take `CC1(C)CCC(CN2CCN(c3ccc(C(=O)NS(=O)(=O)c4ccc(NCC5CCOCC5)c([N+](=O)[O-])c4)c(Oc4cnc5[nH]ccc5c4)c3)CC2)=C(c2ccc(Cl)cc2)C1` [VEN, venetoclax]: the “AML burden (fold-change total body luminescence vs d0)” value in test [2] is “no detectable effect; also recorded: minimal activity”. In addition, the Kaplan-Meier survival result in test [2] (two 5 d treatment cycles, survival to d84, vs vehicle or monotherapy) was “no detectable effect”. Further, in test [1], the “Sensitivity of MCL-1 overexpressing MOLM14 clones compared to control cell lines” value is listed as “more resistant”.
With PEGylated L-asparaginase, in test [2], the “AML burden (fold-change total body luminescence vs d0)” value was “minimal activity”.

Source of the values: US20240293557A1, “PROTEOLYSIS TARGETING CHIMERAS AND METHODS OF USE THEREOF” (University of Maryland, Baltimore, priority 2021, published 2024).
